Data taken from US7189741B2, “Indolylpiperidine derivatives as antihistaminic and antiallergic agents” (Almirall Prodesfarma S.A., priority 2000, dated 2007).
Read-outs that look alike come from different tables or passages of the source.

Experiments:
histamine-H1 receptors = target: T1, histamine-H1 receptors (Cavia porcellus, UniProt P31389); assay: Histamine-H1 receptor binding assay ([3H]-mepyramine displacement); parameters: species or system guinea pig
T1 construct: performed in guinea pig cerebellum membranes as described previously; from tissue; host or cells: guinea pig cerebellum membranes
Description: Briefly, the membrane suspensions (160 μg/ml) were incubated at 30° C. with 0.7 nM [^3H]-mepyramine and different concentrations of the test compounds in a final volume of 250 μl. Binding reactions were terminated by filtration after 30 min of incubation and the bound radioactivity was determined. The specific binding was measured in the presence of 10 μM of promethazine. The affinity of each test compound to the receptor was determined by using at least six different concentrations run in duplicate. IC50 values were obtained by non-linear regression by use of SAS on a DEC AXP computer.

[1] = test system: histamine induced skin vascular permeability; assay: Histamine-induced skin vascular permeability in rats; assay type: in vivo; conditions: Rattus norvegicus; male Wistar rats, oral, dose of 1 mg/Kg, 4 hours after administration, vs vehicle treated group
Description: Male Wistar rats (180–210 g) were treated orally with the test compound or vehicle. 1, 4, 8 and 24 hours later, the rats were lightly anaesthetized with ether. The cutaneous reaction was induced by two intradermal injections of 50 μl of histamine (100 μg/ml) onto the back, followed by a intravenous injection of 3 ml/kg of Evan's Blue (5 mg/ml), both dissolved in saline. Sixty min later, the rats were killed by cervical dislocation and the back skin dissected free. The diameter (in millimeters) of the papule was measured in two directions and the area was calculated.

[2] = guinea pig cerebellum membranes, 0.7 nM [3H]-mepyramine, 30 min at 30° C., read-out: Binding to receptor H1 (IC50)

T1 sequence (P31389 whole entry): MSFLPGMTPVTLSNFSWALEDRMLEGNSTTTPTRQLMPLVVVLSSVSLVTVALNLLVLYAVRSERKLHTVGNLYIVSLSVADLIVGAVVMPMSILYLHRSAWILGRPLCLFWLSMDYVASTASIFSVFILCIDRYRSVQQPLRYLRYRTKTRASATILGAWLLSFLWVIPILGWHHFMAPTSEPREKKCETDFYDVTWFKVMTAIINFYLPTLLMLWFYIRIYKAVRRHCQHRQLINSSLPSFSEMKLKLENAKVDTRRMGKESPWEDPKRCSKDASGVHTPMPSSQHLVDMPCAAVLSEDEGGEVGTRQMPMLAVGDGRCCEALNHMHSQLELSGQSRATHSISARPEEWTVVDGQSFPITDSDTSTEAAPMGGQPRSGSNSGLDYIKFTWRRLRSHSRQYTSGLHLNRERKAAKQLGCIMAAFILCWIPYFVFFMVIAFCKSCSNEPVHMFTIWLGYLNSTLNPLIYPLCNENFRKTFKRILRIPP

Row | SMILES | IC50 (histamine-H1 receptors; [2]) [nM] | inhibition in vivo at 1 mg/kg [1] [%] | IC50 (histamine-H1 receptors) [nM]
1 | O=C(O)c1ccccc1OCCN1CCC(c2cn(CC3OCCO3)c3ccccc23)CC1 [Example 1, 2-{2-[4-(1-[1,3]dioxolan-2-ylmethyl-1H-indol-3-yl)-piperidin-1-yl]-ethoxy}-benzoic acid] | 200 |  | 
2 | O=C(O)c1ccccc1OCCN1CCC(c2cn(Cc3ccncc3)c3ccccc23)CC1 [Example 3, 2-{2-[4-(1-pyridin-4-ylmethyl-1H-indol-3-yl)-piperidin-1-yl]-ethoxy}-benzoic acid] | 267 |  | 
3 | Cn1ccnc1SCCCn1cc(C2CCN(CCOc3ccccc3C(=O)O)CC2)c2ccccc21 [Example 6, 2-[2-(4-{1-[3-(1-methyl-1H-imidazol-2-ylsulfanyl)-propyl]-1H-indol-3-yl}-piperidin-1-yl)-ethoxy]-benzoic acid] | 463 |  | 
4 | O=C(O)c1ccccc1OCCN1CCC(c2cn(Cc3ccco3)c3ccccc23)CC1 [Example 9, 2-{2-[4-(1-furan-2-ylmethyl-1H-indol-3-yl)-piperidin-1-yl]-ethoxy}-benzoic acid] | 98 |  | 
5 | O=C(O)c1ccccc1OCCN1CCC(c2cn(Cc3ccsc3)c3ccccc23)CC1 [Example 11, 2-{2-[4-(1-thiophen-3-ylmethyl-1H-indol-3-yl)-piperidin-1-yl]-ethoxy}-benzoic acid] | 400 |  | 
6 | O=C(O)c1ccccc1OCCN1CCC(c2cn(CCc3cccs3)c3ccccc23)CC1 [Example 12, 2-(2-{4-[1-(2-thiophen-2-yl-ethyl)-1H-indol-3-yl]-piperidin-1-yl}-ethoxy)-benzoic acid] | 43 |  | 
7 | O=C(O)c1ccccc1OCCN1CCC(c2cn(CCc3ccsc3)c3ccccc23)CC1 [Example 13, 2-(2-{4-[1-(2-thiophen-3-yl-ethyl)-1H-indol-3-yl]-piperidin-1-yl}-ethoxy)-benzoic acid] | 59 |  | 
8 | O=C(O)c1ccccc1OCCN1CCC(c2cn(CCCOc3ccc4c(c3)OCO4)c3ccccc23)CC1 [Example 16, 2-[2-(4-{1-[3-(benzo[1,3]dioxol-5-yloxy)propyl]-1H-indol-3-yl}piperidin-1-yl)ethoxy]benzoic acid] | 78 |  | 
9 | O=C(O)c1ccccc1OCCN1CCC(c2cn(Cc3ccc(Cl)s3)c3ccccc23)CC1 [Example 19, 2-(2-{4-[1-(5-chloro-thiophen-2-ylmethyl)-1H-indol-3-yl]-piperidin-1-yl}-ethoxy)-benzoic acid] | 120 |  | 
10 | O=C(O)c1ccccc1OCCN1CCC(c2cn(CCCC3OCCO3)c3ccccc23)CC1 [Example 21, 2-(2-{4-[1-(3-[1,3]dioxolan-2-yl-propyl)-1H-indol-3-yl]-piperidin-1-yl}-ethoxy)-benzoic acid] | 295 |  | 
11 | O=C(O)c1ccccc1OCCN1CCC(c2cn(Cc3ccco3)c3cc(F)ccc23)CC1 [Example 22, 2-{2-[4-(6-fluoro-1-furan-2-ylmethyl-1H-indol-3-yl)-piperidin-1-yl]-ethoxy}-benzoic acid] |  | > 50 | 
12 | O=C(O)c1ccccc1OCCN1CCC(c2cn(CCC3OCCO3)c3ccccc23)CC1 [Example 23, 2-(2-{4-[1-(2-[1,3]dioxolan-2-yl-ethyl)-1H-indol-3-yl]-piperidin-1-yl}-ethoxy)-benzoic acid] | 354 | > 50 | 
13 | O=C(O)c1ccccc1OCCN1CCC(c2cn(CCC3OCCO3)c3cc(F)ccc23)CC1 [Example 24, 2-(2-{4-[1-(2-[1,3]dioxolan-2-yl-ethyl)-6-fluoro-1H-indol-3-yl]-piperidin-1-yl}-ethoxy)-benzoic acid] | 51 | > 50 | 
14 | O=C(O)c1cccc(CN2CCC(c3cn(Cc4cccs4)c4ccccc34)CC2)c1 [Example 25, 3-[4-(1-thiophen-2-ylmethyl-1H-indol-3-yl)-piperidin-1-ylmethyl]-benzoic acid] | 90 |  | 
15 | O=C(O)c1cccc(CN2CCC(c3cn(CCC4OCCO4)c4ccccc34)CC2)c1 [Example 28, 3-{4-[1-(2-[1,3]dioxolan-2-yl-ethyl)-1H-indol-3-yl]-piperidin-1-ylmethyl}-benzoic acid] | 205 |  | 
16 | O=C(O)c1cc(CN2CCC(c3cn(CCCOc4ccc5c(c4)OCO5)c4ccccc34)CC2)ccc1F [Example 50, 5-(4-{1-[3-(benzo[1,3]dioxol-5-yloxy)-propyl]-1H-indol-3-yl}-piperidin-1-ylmethyl)-2-fluoro-benzoic acid] | 155 |  | 
17 | COc1ccc(CN2CCC(c3cn(CCc4cccs4)c4cc(F)ccc34)CC2)cc1C(=O)O [Example 69, 5-{4-[6-fluoro-1-(2-thiophen-2-yl-ethyl)-1H-indol-3-yl]-piperidin-1-ylmethyl}-2-methoxy-benzoic acid] | 135 |  | 
18 | COc1ccc(CN2CCC(c3cn(Cc4cccs4)c4ccccc34)CC2)cc1C(=O)O [Example 73, 2-methoxy-5-[4-(1-thiophen-2-ylmethyl-1H-indol-3-yl)-piperidin-1-ylmethyl]-benzoic acid] | 125 | > 50 | 
19 | COc1ccc(CN2CCC(c3cn(CCc4ccsc4)c4ccccc34)CC2)cc1C(=O)O [Example 75, 2-methoxy-5-{4-[1-(2-thiophen-3-yl-ethyl)-1H-indol-3-yl]-piperidin-1-ylmethyl}-benzoic acid] | 52 | > 50 | 
20 | O=C(O)c1ccccc1OCCN1CCC(c2cn(CCOc3ccc4c(c3)OCO4)c3ccccc23)CC1 [Example 77, 2-[2-(4-{1-[2-(benzo[1,3]dioxol-5-yloxy)-ethyl]-1H-indol-3-yl}-piperidin-1-yl)-ethoxy]-benzoic acid] | 116 |  | 
21 | COc1ccc(CN2CCC(c3cn(CCc4ccsc4)c4cc(F)ccc34)CC2)cc1C(=O)O [Example 78, 5-{4-[6-fluoro-1-(2-thiophen-3-yl-ethyl)-1H-indol-3-yl]-piperidin-1-ylmethyl}-2-methoxy-benzoic acid] |  | > 50 | 65
22 | COc1ccc(CN2CCC(c3cn(Cc4ccc(Cl)s4)c4cc(F)ccc34)CC2)cc1C(=O)O [Example 79, 5-{4-[1-(5-chloro-thiophen-2-ylmethyl)-6-fluoro-1H-indol-3-yl]-piperidin-1-ylmethyl}-2-methoxy-benzoic acid] | 150 | > 50 | 
23 | COc1ccc(CN2CCC(c3cn(Cc4ccoc4)c4cc(F)ccc34)CC2)cc1C(=O)O [Example 80, 5-[4-(6-fluoro-1-furan-3-ylmethyl-1H-indol-3-yl)-piperidin-1-ylmethyl]-2-methoxy-benzoic acid] | 96 | > 50 | 
24 | COc1ccc(CN2CCC(c3cn(Cc4cccs4)c4cc(F)ccc34)CC2)cc1C(=O)O [Example 82, 5-[4-(6-fluoro-1-thiophen-2-ylmethyl-1H-indol-3-yl)-piperidin-1-ylmethyl]-2-methoxy-benzoic acid] | 91 | > 50 | 
25 | COc1ccc(CN2CCC(c3cn(Cc4ccco4)c4ccccc34)CC2)cc1C(=O)O [Example 85, 5-[4-(1-furan-2-ylmethyl-1H-indol-3-yl)-piperidin-1-ylmethyl]-2-methoxy-benzoic acid] | 101 | > 50 | 
26 | COc1ccc(CN2CCC(c3cn(Cc4ccoc4)c4ccccc34)CC2)cc1C(=O)O [Example 86, 5-[4-(1-furan-3-ylmethyl-1H-indol-3-yl)-piperidin-1-ylmethyl]-2-methoxy-benzoic acid] | 155 | > 50 | 
27 | COc1ccc2c(c1)c(C1CCN(CCOc3ccccc3C(=O)O)CC1)cn2CCc1ccsc1 [Example 88, 2-(2-{4-[5-methoxy-1-(2-thiophen-3-yl-ethyl)-1H-indol-3-yl]-piperidin-1-yl}-ethoxy)-benzoic acid] | 51 |  | 
28 | O=C(O)c1cccc(CN2CCC(c3cn(Cc4ccco4)c4cc(F)ccc34)CC2)c1 [Example 96, 3-[4-(6-fluoro-1-furan-2-ylmethyl-1H-indol-3-yl)-piperidin-1-ylmethyl]-benzoic acid] | 107 |  | 
29 | O=C(O)c1ccccc1OCCN1CCC(c2cn(CCc3ccsc3)c3cc(F)ccc23)CC1 [Example 110, 2-(2-{4-[6-fluoro-1-(2-thiophen-3-yl-ethyl)-1H-indol-3-yl]-piperidin-1-yl}-ethoxy)-benzoic acid] | 23 |  | 
30 | O=C(O)c1ccccc1OCCN1CCC(c2cn(Cc3ccoc3)c3cc(F)ccc23)CC1 [Example 112, 2-{2-[4-(6-fluoro-1-furan-3-ylmethyl-1H-indol-3-yl)-piperidin-1-yl]-ethoxy}-benzoic acid] | 31 |  | 
